Measurements reported in patent US20160185820A1, “PRO[…], A GENE TRANSFER ENHANCER” (PHARIS BIOTEC GMBH, priority 2013, published 2016).
Non-standard residues stand in square brackets, D forms with d. Residues, ends and D or L forms follow the SMILES beside them. No end group written: not given here. pGlu = O=C1CC[C@@H](C(=O)O)N1

Tests used:
[1] = Storage stability in aqueous solution (HPLC chromatogram, FIG. 1); type: physicochemical; conditions: storage at 4° C. for 13 days
Method: In the left column of FIG. 1 (HPLC chromatogram), results for protransduzin A upon storage for 0-13 days at −20° C. and at 4° C. (13 days) are compared with the results for protransduzin B under the same conditions.

[2] = system: cells; experiment: Transduction of cells with protransduzin B; type: cell-based; conditions: 25 μg/ml protransduzin B, cells incubated 2 days
Method: Dissolve 0.5 mg of protransduzin B in 50 μl of DMSO. Then add 450 μl of PBS to the solution, fibrils forming within 3 min. Add this stock solution (1 mg/ml) to the vectors to obtain a concentration of protransduzin B of 25 μg/ml. Vortex the solution for 1 min, then centrifuge with 5000 g for 5 min. The supernatant is discarded, and the pellet is suspended in a little PBS and added to the cells. The cells are incubated in an incubator for 2 days.

Molecule | degradation upon storage (HPLC peak height) [1] | cells transduced [2] | transduction rate [2]
CC[C@H](C)[C@H](NC(=O)[C@H](CCCCN)NC(=O)[C@H](CS)NC(=O)[C@@H]1CCC(=O)N1)C(=O)N[C@@H](CCCCN)C(=O)N[C@@H](CCC(N)=O)C(=O)N[C@H](C(=O)N[C@H](C(=O)N[C@@H](CC(N)=O)C(=O)N[C@@H](CCSC)C(=O)N[C@@H](Cc1c[nH]c2ccccc12)C(=O)N[C@@H](CCC(N)=O)C(=O)O)[C@@H](C)CC)[C@@H](C)CC [protransduzin B] ([pGlu]CKIKQIINMWQ-OH) | hardly degraded at all | Up to 96% | significantly enhanced
QCKIKQIINMWQ [protransduzin A, reference compound] | degraded almost to one half |  | 
